Experimental data published in US10442773B2, “Amorphous letermovir and solid pharmaceutical formulations thereof for oral administration” (AICURIS ANTI-INFECTIVE CURES GMBH, priority 2013, dated 2019).
Where “and” joins values, the source holds several entries; their conditions need not be identical. Equal values may be shown once.

assay: Laser diffraction particle size distribution analysis (Mastersizer 2000); type: physicochemical; settings: Mastersizer 2000, dry dispersion, average of four analyses
Experimental: Laser diffraction particle size distribution analysis was conducted on two batches of precipitated amorphous Letermovir of the invention and on a batch of amorphous Letermovir (referred to as BXR3GBL) produced according to Example 11 of WO 2006/133822 while using laser diffraction technique of the Mastersizer 2000 (Malvern Instruments). The results of the analysis are presented in FIG. 9(a-c) in the form of three particle size distribution charts and the numeric part of the results is shown below in Table 23: The particular PSD analysis method is characterized by the following parameter: Device: Mastersizer 2000 with dry dispersion Modus: Fraunhofer; weight-in quantity: 0.3-0.4 g Measurement time: 20 seconds Background time: 6 seconds Obscuration limits: 0.5 to 6% Sample tray: micro volume; small sieve with balls Feed rate: 45-55% Dispersive pressure: 2.5 bar Four independent analyses were performed and the results were averaged.

In order of falling “Particle Size Median Value d(0.5), μm” value:
1. COc1cccc(N2CCN(C3=Nc4c(F)cccc4[C@H](CC(=O)O)N3c3cc(C(F)(F)F)ccc3OC)CC2)c1 [Batch BXR3GBL, reference compound]  21.607 μm
2. COc1cccc(N2CCN(C3=Nc4c(F)cccc4[C@H](CC(=O)O)N3c3cc(C(F)(F)F)ccc3OC)CC2)c1 [Batch 1300750]  9.383 μm
3. COc1cccc(N2CCN(C3=Nc4c(F)cccc4[C@H](CC(=O)O)N3c3cc(C(F)(F)F)ccc3OC)CC2)c1 [Batch 1300735]  8.880 μm

assay: BET specific surface area analysis; type: physicochemical; settings: further BET measurement accompanying the particle size analysis (Table 23)
Experimental: BET specific surface area analysis was conducted on various batches of precipitated amorphous Letermovir. The same was done on a batch of Letermovir (named BXR3GBL) produced according to Example 11 of WO 2006/133822. The results of the analysis are shown below in Table 22: The particular BET method is characterized by the following parameter: Principle: Nitrogen adsorption at 77 K; method according to Brunauer, Emmett and Teller Method: volumetric method (method II) according to USP <846> Instrument: Tristar 3000/VacPrep 061 (Micromeritics) Sample mass: approximately 1.5-2.5 g Sample preparation: degassing for 2 h at 40° C. under vacuum (final vacuum <2.7 Pa) Pressure range p/p0: 0.05-0.15 (3 data points).

In order of rising “Specific Surface Area (SSA), m^2/g” value:
1. COc1cccc(N2CCN(C3=Nc4c(F)cccc4[C@H](CC(=O)O)N3c3cc(C(F)(F)F)ccc3OC)CC2)c1 [Batch BXR3GBL, reference compound]  1.55 m^2/g
2. COc1cccc(N2CCN(C3=Nc4c(F)cccc4[C@H](CC(=O)O)N3c3cc(C(F)(F)F)ccc3OC)CC2)c1 [Batch 1300750]  2.1 m^2/g
3. COc1cccc(N2CCN(C3=Nc4c(F)cccc4[C@H](CC(=O)O)N3c3cc(C(F)(F)F)ccc3OC)CC2)c1 [Batch 1300735]  2.18 m^2/g

same assay, conditions: isolated API

With `COc1cccc(N2CCN(C3=Nc4c(F)cccc4[C@H](CC(=O)O)N3c3cc(C(F)(F)F)ccc3OC)CC2)c1` [roller dried Letermovir] the specific surface area was < 1 m^2/g.
With `COc1cccc(N2CCN(C3=Nc4c(F)cccc4[C@H](CC(=O)O)N3c3cc(C(F)(F)F)ccc3OC)CC2)c1` [precipitated Letermovir, (S)-{8-fluoro-2-[4-(3-methoxyphenyl)piperazin-1-yl]-3-(2-methoxy-5-trifluormethylphenyl)-3,4-dihydroquinazolin-4-yl}acetic acid] the specific surface area was 1.2-2 m^2/g.

same assay, conditions: nitrogen adsorption at 77 K

In order of rising “Specific Surface Area (SSA), m^2/g; BET value on average” value:
1. COc1cccc(N2CCN(C3=Nc4c(F)cccc4[C@H](CC(=O)O)N3c3cc(C(F)(F)F)ccc3OC)CC2)c1 [Batch BXR3GBL, reference compound]  0.64 m^2/g
2. COc1cccc(N2CCN(C3=Nc4c(F)cccc4[C@H](CC(=O)O)N3c3cc(C(F)(F)F)ccc3OC)CC2)c1 [Batch 40483515]  1.03 m^2/g
3. COc1cccc(N2CCN(C3=Nc4c(F)cccc4[C@H](CC(=O)O)N3c3cc(C(F)(F)F)ccc3OC)CC2)c1 [Batch 40474463]  1.23 m^2/g
4. COc1cccc(N2CCN(C3=Nc4c(F)cccc4[C@H](CC(=O)O)N3c3cc(C(F)(F)F)ccc3OC)CC2)c1 [Batch 40475297]  1.25 m^2/g
5. COc1cccc(N2CCN(C3=Nc4c(F)cccc4[C@H](CC(=O)O)N3c3cc(C(F)(F)F)ccc3OC)CC2)c1 [Batch 40479189]  1.26 m^2/g
6. COc1cccc(N2CCN(C3=Nc4c(F)cccc4[C@H](CC(=O)O)N3c3cc(C(F)(F)F)ccc3OC)CC2)c1 [Batch 40483516]  1.28 m^2/g
7. COc1cccc(N2CCN(C3=Nc4c(F)cccc4[C@H](CC(=O)O)N3c3cc(C(F)(F)F)ccc3OC)CC2)c1 [Batch 40479200]  1.30 m^2/g
8. COc1cccc(N2CCN(C3=Nc4c(F)cccc4[C@H](CC(=O)O)N3c3cc(C(F)(F)F)ccc3OC)CC2)c1 [Batch 40479463]  1.45 m^2/g
9. COc1cccc(N2CCN(C3=Nc4c(F)cccc4[C@H](CC(=O)O)N3c3cc(C(F)(F)F)ccc3OC)CC2)c1 [Batch 40479248]  1.45 m^2/g
10. COc1cccc(N2CCN(C3=Nc4c(F)cccc4[C@H](CC(=O)O)N3c3cc(C(F)(F)F)ccc3OC)CC2)c1 [Batch 40474375]  1.46 m^2/g
11. COc1cccc(N2CCN(C3=Nc4c(F)cccc4[C@H](CC(=O)O)N3c3cc(C(F)(F)F)ccc3OC)CC2)c1 [Batch 40479434]  1.48 m^2/g
12. COc1cccc(N2CCN(C3=Nc4c(F)cccc4[C@H](CC(=O)O)N3c3cc(C(F)(F)F)ccc3OC)CC2)c1 [Batch 40479202]  1.69 m^2/g
13. COc1cccc(N2CCN(C3=Nc4c(F)cccc4[C@H](CC(=O)O)N3c3cc(C(F)(F)F)ccc3OC)CC2)c1 [Batch 40479326]  1.76 m^2/g
14. COc1cccc(N2CCN(C3=Nc4c(F)cccc4[C@H](CC(=O)O)N3c3cc(C(F)(F)F)ccc3OC)CC2)c1 [Batch 40479201]  1.97 m^2/g
15. COc1cccc(N2CCN(C3=Nc4c(F)cccc4[C@H](CC(=O)O)N3c3cc(C(F)(F)F)ccc3OC)CC2)c1 [Batch 40479198]  2.09 m^2/g

With `COc1cccc(N2CCN(C3=Nc4c(F)cccc4[C@H](CC(=O)O)N3c3cc(C(F)(F)F)ccc3OC)CC2)c1` [Batch 40483517] the “Specific Surface Area (SSA), m^2/g; BET value on average” value was 1.87 m^2/g and 1.83 m^2/g.
